Test results published in PubChem BioAssay (NCI).
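48-hour exposure; five concentrations; linearly interpolated endpoints. TGI denotes the concentration required for complete inhibition of growth.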

Experiments:
Test in all cases: DTP human tumour cell line panel, 48 h
K-562 leukemia = system: K-562 leukemia
A549 NSCLC = system: A549 NSCLC
EKVX NSCLC = system: EKVX NSCLC
MDA-MB-435 = system: MDA-MB-435
HOP-92 NSCLC = system: HOP-92 NSCLC
SK-MEL-28 melanoma = system: SK-MEL-28 melanoma
IGROV1 ovarian = system: IGROV1 ovarian
KM12 colon = system: KM12 colon
HL-60(TB) leukemia = system: HL-60(TB) leukemia
DU-145 prostate = system: DU-145 prostate
BT-549 breast = system: BT-549 breast
RXF 393 renal = system: RXF 393 renal
SF-539 CNS = system: SF-539 CNS
RPMI-8226 leukemia = system: RPMI-8226 leukemia
HCT-116 colon = system: HCT-116 colon
SF-268 CNS = system: SF-268 CNS
SF-295 CNS = system: SF-295 CNS
NCI-H460 lung = system: NCI-H460 lung
TK-10 renal = system: TK-10 renal
MDA-N = system: MDA-N
COLO 205 colon = system: COLO 205 colon
SN12C renal = system: SN12C renal
MDA-MB-231 breast = system: MDA-MB-231 breast
HCC-2998 colon = system: HCC-2998 colon
UO-31 renal = system: UO-31 renal
U251 CNS = system: U251 CNS
SW-620 colon = system: SW-620 colon
MOLT-4 leukemia = system: MOLT-4 leukemia
NCI/ADR-RES ovarian = system: NCI/ADR-RES ovarian
HCT-15 colon = system: HCT-15 colon
CAKI-1 renal = system: CAKI-1 renal
SK-OV-3 ovarian = system: SK-OV-3 ovarian
M14 melanoma = system: M14 melanoma
OVCAR-8 ovarian = system: OVCAR-8 ovarian
ACHN renal = system: ACHN renal
UACC-62 melanoma = system: UACC-62 melanoma
LOX IMVI melanoma = system: LOX IMVI melanoma
MALME-3M melanoma = system: MALME-3M melanoma
NCI-H226 lung = system: NCI-H226 lung
HT29 colon = system: HT29 colon
OVCAR-5 ovarian = system: OVCAR-5 ovarian
NCI-H23 lung = system: NCI-H23 lung
OVCAR-4 ovarian = system: OVCAR-4 ovarian
A498 renal = system: A498 renal
786-0 renal = system: 786-0 renal
SK-MEL-5 melanoma = system: SK-MEL-5 melanoma
CCRF-CEM leukemia = system: CCRF-CEM leukemia
MCF7 breast = system: MCF7 breast
UACC-257 melanoma = system: UACC-257 melanoma
NCI-H522 lung = system: NCI-H522 lung
T-47D breast = system: T-47D breast
SNB-19 CNS = system: SNB-19 CNS
SNB-75 CNS = system: SNB-75 CNS
HS 578T breast = system: HS 578T breast
HOP-62 NSCLC = system: HOP-62 NSCLC
OVCAR-3 ovarian = system: OVCAR-3 ovarian
PC-3 prostate = system: PC-3 prostate
SK-MEL-2 melanoma = system: SK-MEL-2 melanoma

## CC(NC(=O)/C(=C/c1ccccc1O)NC(=O)c1ccccc1)C(=O)O (configuration not stated)
K-562 leukemia
  TGI: > 100 µM
A549 NSCLC
  TGI: > 100 µM
EKVX NSCLC
  TGI: 88.2 µM
MDA-MB-435
  TGI: > 100 µM
HOP-92 NSCLC
  TGI: > 100 µM
SK-MEL-28 melanoma
  TGI: > 100 µM
IGROV1 ovarian
  TGI: > 100 µM
KM12 colon
  TGI: > 100 µM
HL-60(TB) leukemia
  TGI: > 100 µM
DU-145 prostate
  TGI: > 100 µM
BT-549 breast
  TGI: 50.2 µM
RXF 393 renal
  TGI: 57.6 µM
SF-539 CNS
  TGI: 46.4 µM
RPMI-8226 leukemia
  TGI: > 100 µM
HCT-116 colon
  TGI: > 100 µM
SF-268 CNS
  TGI: 32.9 µM
SF-295 CNS
  TGI: 38.8 µM
NCI-H460 lung
  TGI: 64.9 µM
TK-10 renal
  TGI: > 100 µM
MDA-N
  TGI: > 100 µM
COLO 205 colon
  TGI: > 100 µM
SN12C renal
  TGI: 48.1 µM
MDA-MB-231 breast
  TGI: 60 µM
HCC-2998 colon
  TGI: 76.2 µM
UO-31 renal
  TGI: 34.6 µM
U251 CNS
  TGI: > 100 µM
SW-620 colon
  TGI: > 100 µM
MOLT-4 leukemia
  TGI: > 100 µM
NCI/ADR-RES ovarian
  TGI: 33.4 µM
HCT-15 colon
  TGI: 80.4 µM
CAKI-1 renal
  TGI: 37.2 µM
SK-OV-3 ovarian
  TGI: 50.2 µM
M14 melanoma
  TGI: > 100 µM
OVCAR-8 ovarian
  TGI: 29.1 µM
ACHN renal
  TGI: 33.2 µM
UACC-62 melanoma
  TGI: > 100 µM
LOX IMVI melanoma
  TGI: > 100 µM
MALME-3M melanoma
  TGI: > 100 µM
NCI-H226 lung
  TGI: 45.5 µM
HT29 colon
  TGI: > 100 µM
OVCAR-5 ovarian
  TGI: > 100 µM
NCI-H23 lung
  TGI: > 100 µM
OVCAR-4 ovarian
  TGI: > 100 µM
A498 renal
  TGI: > 100 µM
786-0 renal
  TGI: 68.1 µM
SK-MEL-5 melanoma
  TGI: > 100 µM
CCRF-CEM leukemia
  TGI: > 100 µM
MCF7 breast
  TGI: 21.6 µM
UACC-257 melanoma
  TGI: > 100 µM
NCI-H522 lung
  TGI: 50 µM
T-47D breast
  TGI: > 100 µM
SNB-19 CNS
  TGI: 55.2 µM
SNB-75 CNS
  TGI: 31.1 µM
HS 578T breast
  TGI: 38.2 µM

## O=C(c1ccccc1)C1C(C(=O)c2ccccc2)N1Cc1ccccc1 (configuration not stated)
K-562 leukemia
  TGI: > 100 µM
A549 NSCLC
  TGI: > 100 µM
EKVX NSCLC
  TGI: > 100 µM
HOP-62 NSCLC
  TGI: > 100 µM
MDA-MB-435
  TGI: 68.3 µM
HOP-92 NSCLC
  TGI: > 100 µM
SK-MEL-28 melanoma
  TGI: > 100 µM
IGROV1 ovarian
  TGI: > 100 µM
KM12 colon
  TGI: > 100 µM
DU-145 prostate
  TGI: 85.8 µM
OVCAR-3 ovarian
  TGI: 99.2 µM
BT-549 breast
  TGI: 72 µM
RPMI-8226 leukemia
  TGI: > 100 µM
SF-268 CNS
  TGI: > 100 µM
SF-295 CNS
  TGI: > 100 µM
PC-3 prostate
  TGI: > 100 µM
NCI-H460 lung
  TGI: > 100 µM
TK-10 renal
  TGI: > 100 µM
MDA-N
  TGI: 37.4 µM
COLO 205 colon
  TGI: 58.3 µM
SN12C renal
  TGI: 95.1 µM
MDA-MB-231 breast
  TGI: > 100 µM
HCC-2998 colon
  TGI: > 100 µM
UO-31 renal
  TGI: > 100 µM
U251 CNS
  TGI: > 100 µM
SW-620 colon
  TGI: > 100 µM
MOLT-4 leukemia
  TGI: > 100 µM
NCI/ADR-RES ovarian
  TGI: > 100 µM
SK-MEL-2 melanoma
  TGI: 51.5 µM
HCT-15 colon
  TGI: > 100 µM
CAKI-1 renal
  TGI: > 100 µM
SK-OV-3 ovarian
  TGI: > 100 µM
M14 melanoma
  TGI: > 100 µM
OVCAR-8 ovarian
  TGI: > 100 µM
ACHN renal
  TGI: > 100 µM
UACC-62 melanoma
  TGI: 70.8 µM
LOX IMVI melanoma
  TGI: > 100 µM
MALME-3M melanoma
  TGI: 77.3 µM
NCI-H226 lung
  TGI: > 100 µM
HT29 colon
  TGI: > 100 µM
OVCAR-5 ovarian
  TGI: > 100 µM
NCI-H23 lung
  TGI: > 100 µM
OVCAR-4 ovarian
  TGI: > 100 µM
A498 renal
  TGI: > 100 µM
786-0 renal
  TGI: > 100 µM
SK-MEL-5 melanoma
  TGI: 36.7 µM
CCRF-CEM leukemia
  TGI: > 100 µM
UACC-257 melanoma
  TGI: > 100 µM
NCI-H522 lung
  TGI: 74.6 µM
T-47D breast
  TGI: 49.8 µM
SNB-19 CNS
  TGI: > 100 µM
SNB-75 CNS
  TGI: 57.1 µM
HS 578T breast
  TGI: > 100 µM
